Reference: US9040523B2, “Antifungal 5,6-dihydro-4H-pyrrolo[1,2-α][1,4]-benzodiazepines and 6H-pyrrolo[1,2-α][1,4]benzodiazepines substituted with benzene derivatives” (JANSSEN PHARMACEUTICA NV, priority 2010, dated 2015)

Key:
CYP3A4 = CYP3A4 (Homo sapiens, UniProt P08684); assay: Cytochrome P450 inhibition, Protocol A, cDNA expressed proteins, fluorogenic substrates; format: in vitro ADME; details: % inhibition at 10 μM, cDNA expressed protein; for hCYP3A4_BFC_Pct_Inh: substrate BFC; for hCYP3A4_BQ_Pct_Inh: substrate BQ; for hCYP3A4_DBF_Pct_Inh: substrate DBF
Chain of CYP3A4 (P08684 whole entry): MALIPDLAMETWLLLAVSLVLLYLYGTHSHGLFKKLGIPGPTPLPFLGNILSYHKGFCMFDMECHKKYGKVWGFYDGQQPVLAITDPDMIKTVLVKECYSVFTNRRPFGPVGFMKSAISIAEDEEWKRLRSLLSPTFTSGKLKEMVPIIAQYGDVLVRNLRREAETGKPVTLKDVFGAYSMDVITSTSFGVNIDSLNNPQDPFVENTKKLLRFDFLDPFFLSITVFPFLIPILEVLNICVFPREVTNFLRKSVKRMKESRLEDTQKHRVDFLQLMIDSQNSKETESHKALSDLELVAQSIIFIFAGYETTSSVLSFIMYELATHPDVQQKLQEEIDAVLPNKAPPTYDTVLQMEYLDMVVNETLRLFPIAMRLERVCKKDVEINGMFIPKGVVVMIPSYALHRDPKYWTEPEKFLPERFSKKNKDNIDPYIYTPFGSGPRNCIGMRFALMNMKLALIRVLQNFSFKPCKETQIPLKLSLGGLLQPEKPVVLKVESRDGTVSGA
Experimental: (§1) All fluorogenic based assays were performed in Black Costar 96-well plates according to Crespi et al 1997 with minor modifications (Crespi C L, Miller V P & Penman B W (1997). Microtiter plate assays for inhibition of human, drug-metabolizing cytochromes P450. Anal. Biochem. Vol 248, 1898-1900). Assay conditions are outlined in Table 5a. For cytochrome P450 3A4, three different fluorogenic substrates were used. Each reaction mixture consisted of the appropriate concentration of enzyme, NADPH-generating system (“NADPH” means β-nicotinamide adenine dinucleotide phosphate, reduced), substrate in sodium/potassium buffer (pH 7.4). For each cytochrome P450 batch Michealis-Menten kinetics were determined using 11 concentrations.
(§2) Thereafter, further dilutions were made in acetonitrile. […] The compounds were serially diluted to give final concentrations ranging from 1 nM to 10 μM. The reaction mixtures, whereby 1 μL of buffer was replaced by compound solution, were pre-warmed for 5 min at 37° C. and the reaction was initiated by the addition of β-nicotinamide adenine dinucleotide phosphate (NADP+). Reactions were terminated by addition of stopping reagent and the fluorescence was measured using a Fluoroscan (Labsystems, Brussel, Belgium).
(§3) In Table 5a, the following abbreviations were used: 3-cyano-7-ethocycoumarin (CEC), 7-methoxy-4-trifluoromethylcoumarin (MFC), 3-[2-(N,N-diethyl-N-methylamino)ethyl]-7-methoxy-4-methylcoumarin (AMMC), 7-benzyloxy-trifluoromethyl coumarin (BFC), 7-benzyloxyquinoline (BQ) and dibenzyl fluorescein (DBF).

CYP2C9 = CYP2C9 (Homo sapiens, UniProt P11712); assay: Cytochrome P450 inhibition, Protocol A, cDNA expressed proteins, fluorogenic substrate; format: in vitro ADME; details: % inhibition at 10 μM; substrate MFC; cDNA expressed protein
Chain of CYP2C9 (P11712 whole entry): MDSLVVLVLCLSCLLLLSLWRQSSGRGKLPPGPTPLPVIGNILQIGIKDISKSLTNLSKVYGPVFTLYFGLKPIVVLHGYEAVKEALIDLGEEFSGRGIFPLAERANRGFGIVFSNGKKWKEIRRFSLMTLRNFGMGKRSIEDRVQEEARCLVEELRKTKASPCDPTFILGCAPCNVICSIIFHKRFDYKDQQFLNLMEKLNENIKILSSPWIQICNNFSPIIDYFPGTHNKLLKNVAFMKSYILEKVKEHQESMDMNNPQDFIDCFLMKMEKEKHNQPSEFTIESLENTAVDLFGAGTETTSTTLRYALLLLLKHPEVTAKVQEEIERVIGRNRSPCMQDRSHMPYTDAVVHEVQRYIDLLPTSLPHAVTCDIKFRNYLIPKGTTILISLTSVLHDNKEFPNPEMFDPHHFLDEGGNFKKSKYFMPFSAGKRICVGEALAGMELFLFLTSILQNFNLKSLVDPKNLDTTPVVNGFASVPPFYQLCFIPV
Experimental: as §1, §2, §3

CYP2D6 = CYP2D6 (Homo sapiens, UniProt P10635); assay: as above; format: in vitro ADME; details: % inhibition at 10 μM; substrate AMMC; cDNA expressed protein
Chain of CYP2D6 (P10635 whole entry): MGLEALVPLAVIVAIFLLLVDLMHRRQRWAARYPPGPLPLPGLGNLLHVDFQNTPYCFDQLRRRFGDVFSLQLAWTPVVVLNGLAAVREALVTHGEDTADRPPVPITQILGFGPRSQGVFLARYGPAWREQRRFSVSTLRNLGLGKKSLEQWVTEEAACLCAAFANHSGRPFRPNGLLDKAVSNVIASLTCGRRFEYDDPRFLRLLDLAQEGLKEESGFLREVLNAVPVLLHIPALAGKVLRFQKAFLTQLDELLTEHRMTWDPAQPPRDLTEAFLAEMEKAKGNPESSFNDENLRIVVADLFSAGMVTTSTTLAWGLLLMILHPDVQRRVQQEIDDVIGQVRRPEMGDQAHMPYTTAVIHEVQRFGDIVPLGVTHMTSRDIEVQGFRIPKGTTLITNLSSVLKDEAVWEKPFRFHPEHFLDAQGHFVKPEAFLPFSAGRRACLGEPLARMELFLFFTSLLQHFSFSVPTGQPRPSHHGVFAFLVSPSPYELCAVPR
Experimental: as §1, §2, §3

CYP1A2 = molecular target: T1, CYP1A2 (Homo sapiens, UniProt P05177); assay: as above; format: in vitro ADME; details: % inhibition at 10 μM; substrate CEC; cDNA expressed protein
T1 sequence (P05177 1-516): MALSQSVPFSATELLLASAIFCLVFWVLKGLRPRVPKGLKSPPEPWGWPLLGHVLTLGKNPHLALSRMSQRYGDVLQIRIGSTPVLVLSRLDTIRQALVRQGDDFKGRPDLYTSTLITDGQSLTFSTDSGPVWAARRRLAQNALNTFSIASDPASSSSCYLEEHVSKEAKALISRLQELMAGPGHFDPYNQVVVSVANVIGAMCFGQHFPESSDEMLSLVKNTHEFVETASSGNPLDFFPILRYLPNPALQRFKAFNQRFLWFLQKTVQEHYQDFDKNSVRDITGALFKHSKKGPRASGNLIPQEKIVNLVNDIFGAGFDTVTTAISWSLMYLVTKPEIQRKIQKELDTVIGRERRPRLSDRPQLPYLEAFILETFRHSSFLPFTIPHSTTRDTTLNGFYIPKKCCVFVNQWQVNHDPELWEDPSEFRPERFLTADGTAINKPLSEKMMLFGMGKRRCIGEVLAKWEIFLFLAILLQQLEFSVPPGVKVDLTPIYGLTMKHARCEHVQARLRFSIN
Experimental: as §1, §2, §3

[1] = tested on: Trichophyton rubrum B68183; assay: Antifungal activity in vitro (resazurin susceptibility screen), Inf. C; format: cell-based; details: Trichophyton rubrum B68183; 27 °C, 7 days, resa time 24 hours; read-out: Inf. C pIC50 (converted)
Experimental: (§4) The standard susceptibility screen was performed in 96-well plates (U-bottom, Greiner Bio-One). […] These serial dilutions (10 n1) were then spotted onto test-plates that could be stored in the dark at 4° C. for a maximum period of 2 weeks. […] The different fungal species/isolates (Table 3a) were cryopreserved and 1/1000 diluted in medium just prior to use. A standard inoculum of 200 μl containing 10^3 colony-forming unit (cfu) was then added to each well. A positive control (100% growth=fungal culture without antifungal) and a negative control (0% growth ═RPMI-MOPS medium) were included on each plate. […] [table]

Microsporum canis B68128 = assay: Antifungal activity in vitro (resazurin susceptibility screen), Inf. B; format: cell-based; details: 27 °C, 9 days, resa time 24 hours; for IC50: Microsporum canis, B68128, Microsporum canis B68128, read-out: Inf. B pIC50 (converted)
Experimental: (§5) The standard susceptibility screen was performed in 96-well plates (U-bottom, Greiner Bio-One). […] These serial dilutions (10 n1) were then spotted onto test-plates that could be stored in the dark at 4° C. for a maximum period of 2 weeks. […] A standard inoculum of 200 μl containing 10^3 colony-forming unit (cfu) was then added to each well. A positive control (100% growth=fungal culture without antifungal) and a negative control (0% growth ═RPMI-MOPS medium) were included on each plate.

[2] = tested on: Cryptococcus neoformans B66663; assay: Antifungal activity in vitro (resazurin susceptibility screen), Inf. F; format: cell-based; details: 37 °C, 24 hours, resa time 4 hours; for IC50: Cryptococcus neoformans, B66663, Cryptococcus neoformans B66663, read-out: Inf. F pIC50 (converted)
Experimental: as §4

[3] = tested on: Sporothrix schenkii B62482; assay: Antifungal activity in vitro (resazurin susceptibility screen), Inf. A; format: cell-based; details: Sporothrix, B62482, Sporothrix schenkii B62482; 27 °C, 4 days, resa time 24 hours; highest in-test concentration 64 μM; read-out: Inf. A pIC50 (converted)
Experimental: as §4

[4] = tested on: Trichophyton mentagrophytes B70554; assay: Antifungal activity in vitro (resazurin susceptibility screen), Inf. G; format: cell-based; details: Trichophyton mentagrophytes, B70554, Trichophyton mentagrophytes B70554; 27 °C, 7 days, resa time 24 hours; read-out: Inf. G pIC50 (converted)
Experimental: as §5

[5] = tested on: Candida parapsilosis B66126; assay: Antifungal activity in vitro (resazurin susceptibility screen), Inf. D; format: cell-based; details: Lodderomyces parapsilosis; Candida parapsilosis B66126; 37 °C, 24 hours, resa time 4 hours; read-out: Inf. D pIC50 (converted)
Experimental: as §5

[6] = tested on: Aspergillus fumigatus B42928; assay: Antifungal activity in vitro (resazurin susceptibility screen), Inf. E; format: cell-based; details: Aspergillus fumigatus B42928; 27 °C, 48 hours, resa time 17 hours; read-out: Inf. E pIC50 (converted)
Experimental: as §4

[7] = Liver metabolic stability assay, hLM; format: in vitro ADME, human; details: human liver microsomes, 1 mg protein/ml, 5 μM test compound, 15 min, 37 °C
Experimental: Liver preparations (microsomal fractions) were obtained from BD Gentest (San Jose, Calif., US). Metabolic stability was assessed using the following assay conditions. […] The mixture was pre-incubated at 37° C. for 5 min and the enzymatic reaction was started by addition of 5 μM test compound. After 0 (control) and 15 minutes (min), the reactions were terminated by addition of […] (500 μl). The precipitated material was removed by centrifugation at 1200 g for 10 min. The supernatant was analysed by LC-MS/MS on a ThermoFinnigan LCQ Deca XP ion-trap mass spectrometer equipped with an atmospheric pressure chemical ionisation source. Calculation of %-compound remaining was as described by Kantharaj et al. 2003 ((Kantharaj E., Tuytelaars A, Proost P E A, Ongel Z, van […] (2003). Simultaneous measurement of drug metabolic stability and identification of metabolites using ion-trap mass spectrometry.

| hCYP3A4_BFC_Pct_Inh (CYP3A4) [%] | hCYP3A4_BQ_Pct_Inh (CYP3A4) [%] | hCYP3A4_DBF_Pct_Inh (CYP3A4) [%] | hCYP2C9_MFC_Pct_Inh (CYP2C9) [%] | hCYP2D6_AMMC_Pct_Inh (CYP2D6) [%] | hCYP1A2_CEC_Pct_Inh (CYP1A2) [%] | IC50 (Microsporum canis B68128) [µM] | IC50 [2] [µM] | %-compound metabolised_Met_hLM [7] [%] | Compound | IC50 [1] [µM] | melting point [°C] | IC50 [3] [µM] | IC50 [4] [µM] | IC50 [5] [µM] | IC50 [6] [µM] | Inf. B pIC50 (Microsporum canis B68128; Microsporum canis B68128) | Inf. F pIC50 ([2]; Cryptococcus neoformans B66663) |
| --- | --- | --- | --- | --- | --- | --- | --- | --- | --- | --- | --- | --- | --- | --- | --- | --- | --- |
| – | – | – | – | – | – | – | – | – | CC(=O)c1ccc(C2NCc3c(Cl)cc(Cl)cc3-n3cccc32)cc1 (stereo not drawn) [Compound 11, 1-[4-(7,9-dichloro-5,6-dihydro-4H-pyrrolo[1,2-a][1,4]benzodiazepin-4-yl)phenyl]-ethanone] | 2 | 204.8 to 206.6 | 50.1 | 5.01 | > 63.1 | > 63.1 | 6.0 | 5.2 |
| 21 | 29 | 21 | 45 | 11 | 21 | 3.16 | > 63.1 | 80 | CC(=O)c1ccc(C2=NCc3c(Cl)ccc(Cl)c3-n3cccc32)cc1 [Compound 25, 1-[4-(7,10-dichloro-6H-pyrrolo[1,2-a][1,4]benzodiazepin-4-yl)phenyl]-ethanone] | 5.01 | – | > 63.1 | 10 | > 63.1 | > 63.1 | – | – |
| – | – | – | – | – | – | 10 | 31.6 | – | CS(=O)(=O)c1ccc(C2=NCc3c(F)cccc3-n3cccc32)cc1 [Compound 29, 7-fluoro-4-[4-(methylsulfonyl)phenyl]-6H-pyrrolo[1,2-a][1,4]benzodiazepine] | 2.51 | 92 to 95 | > 63.1 | 6.31 | > 63.1 | 50.1 | – | – |
| – | – | – | – | – | – | > 63.1 | > 63.1 | – | CS(=O)(=O)c1cccc(C2=NCc3c(Cl)cc(Cl)cc3-n3cccc32)c1 [Compound 31, 7,9-dichloro-4-[3-(methylsulfonyl)phenyl]-6H-pyrrolo[1,2-a][1,4]benzodiazepine] | > 63.1 | 221.2 to 221.5 | > 63.1 | > 63.1 | > 63.1 | > 63.1 | – | – |
| 7 | 50 | 40 | 69 | 20 | 21 | – | – | – | CC(=O)c1ccc(C2=NCc3ccc(Cl)cc3-n3cccc32)cc1 [drawing 86] | – | – | – | – | – | – | – | – |
| 2 | 33 | 21 | 82 | 18 | 33 | – | – | – | CC(=O)c1ccc(C2=NCc3c(Cl)cccc3-n3cccc32)cc1 [drawing 88] | – | – | – | – | – | – | – | – |
| 45 | 62 | 64 | 41 | 52 | 60 | – | – | – | CCc1ccc(C2=NCc3c(Cl)cccc3-n3cccc32)cc1 [drawing 89] | – | – | – | – | – | – | – | – |
| 5 | 17 | 1 | 48 | 5 | 5 | – | – | – | CS(=O)(=O)c1ccc(C2=NCc3c(Cl)cccc3-n3cccc32)cc1 [drawing 90] | – | – | – | – | – | – | – | – |

| Compound | hCYP3A4_BFC_Pct_Inh (CYP3A4) [%] | hCYP3A4_BQ_Pct_Inh (CYP3A4) [%] | hCYP3A4_DBF_Pct_Inh (CYP3A4) [%] | hCYP2C9_MFC_Pct_Inh (CYP2C9) [%] | hCYP2D6_AMMC_Pct_Inh (CYP2D6) [%] | hCYP1A2_CEC_Pct_Inh (CYP1A2) [%] | IC50 (Microsporum canis B68128) [µM] | IC50 [2] [µM] | %-compound metabolised_Met_hLM [7] [%] | IC50 [1] [µM] | melting point [°C] | IC50 [3] [µM] | IC50 [4] [µM] | IC50 [5] [µM] | IC50 [6] [µM] | Inf. B pIC50 (Microsporum canis B68128; Microsporum canis B68128) | Inf. F pIC50 ([2]; Cryptococcus neoformans B66663) |
| --- | --- | --- | --- | --- | --- | --- | --- | --- | --- | --- | --- | --- | --- | --- | --- | --- | --- |
| CC(=O)c1ccc(C2NCc3c(Cl)cccc3-n3cccc32)cc1.Cl (stereo not drawn) | 57 | 57 | 70 | 54 | 53 | 12 | – | – | – | – | – | – | – | – | – | – | – |
| CCc1ccc(C2NCc3c(Cl)cccc3-n3cccc32)cc1.Cl (stereo not drawn) | 64 | 57 | 69 | 68 | 96 | 48 | – | – | – | – | – | – | – | – | – | – | – |
| CCc1ccc(C2=NCc3ccc(Cl)cc3-n3cccc32)cc1 | 55 | 66 | 70 | 50 | 33 | 40 | – | – | – | – | – | – | – | – | – | – | – |
| CC(=O)c1ccc(C2NCc3ccc(Cl)cc3-n3cccc32)cc1 (stereo not drawn) [Compound 8, 1-[4-(9-chloro-5,6-dihydro-4H-pyrrolo[1,2-a][1,4]benzodiazepin-4-yl)phenyl]-ethanone] | – | – | – | – | – | – | > 63.1 | 50.1 | – | 2 | 185.4 to 186.9 | 31.6 | 5.01 | > 63.1 | 12.6 | – | – |
| CC(=O)c1ccc(C2NCc3cc(Cl)cc(Cl)c3-n3cccc32)cc1.Cl (stereo not drawn) [Compound 14, 1-[4-(8,10-dichloro-5,6-dihydro-4H-pyrrolo[1,2-a][1,4]benzodiazepin-4-yl)phenyl]-ethanone .HCl] | – | – | – | – | – | – | 2.51 | 50.1 | – | 0.631 | 259.3 to 264.5 | 25.1 | 25.1 | > 63.1 | > 63.1 | – | – |
